Test results: patent US10111881B2 (priority 2016, dated 2018)
Read-outs that look alike come from different tables or passages of the source.

What was measured:
MARV = test: microbe, parasite or virus in culture; type: cell-based, Marburgvirus (Musoke strain)
EBOV [1] = test: organism not typed; type: cell-based, Zaire Ebolavirus (Mayinga strain)
EBOV [2] = test: microbe, parasite or virus in culture; type: cell-based, Zaire Ebolavirus (Mayinga strain)
EBOV [3] = type: cell-based, Zaire Ebolavirus (Mayinga strain)
HeLa cells [4] = type: cell-based, human; settings: for Dextran Uptake: 50 μM
HeLa cells [5] = type: cell-based, human; settings: for Transferrin uptake: 50 μM
[6] = system: Baby hamster kidney fibroblasts (BHK) cells; test: Acridine orange assay for acidification blockers; type: cell-based
Cathepsin = Cathepsin cleavage of GP
NPC1 C-loop = target: T1, NPC1 C-loop (Homo sapiens, UniProt O15118); test: NPC1 C-loop binding
T1 construct: C-loop
T1 sequence (O15118 372-620 limits assumed): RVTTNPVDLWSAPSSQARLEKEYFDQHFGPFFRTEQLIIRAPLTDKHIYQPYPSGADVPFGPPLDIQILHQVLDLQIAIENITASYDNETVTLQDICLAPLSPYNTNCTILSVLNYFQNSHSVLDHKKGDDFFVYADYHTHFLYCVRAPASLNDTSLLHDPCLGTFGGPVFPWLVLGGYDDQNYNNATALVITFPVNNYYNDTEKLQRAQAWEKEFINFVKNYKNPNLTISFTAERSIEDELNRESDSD

HeLa cells [7] = settings: human
IL-1-Beta = settings: PubChem / MLSMR data; cited from earlier work
Janus kinase 2 = settings: PubChem data; cited from earlier work
Synuclein = settings: PubChem data; cited from earlier work
Shiga toxins A and B = settings: cited from earlier work
MDM2/A = MDM2/A (Homo sapiens, UniProt Q00987); settings: MLSMR screening network data; cited from earlier work
MDM4/1 = target: T2, MDM4/1 (Homo sapiens, UniProt O15151); settings: MLSMR screening network data; cited from earlier work
T2 sequence (O15151 1-490): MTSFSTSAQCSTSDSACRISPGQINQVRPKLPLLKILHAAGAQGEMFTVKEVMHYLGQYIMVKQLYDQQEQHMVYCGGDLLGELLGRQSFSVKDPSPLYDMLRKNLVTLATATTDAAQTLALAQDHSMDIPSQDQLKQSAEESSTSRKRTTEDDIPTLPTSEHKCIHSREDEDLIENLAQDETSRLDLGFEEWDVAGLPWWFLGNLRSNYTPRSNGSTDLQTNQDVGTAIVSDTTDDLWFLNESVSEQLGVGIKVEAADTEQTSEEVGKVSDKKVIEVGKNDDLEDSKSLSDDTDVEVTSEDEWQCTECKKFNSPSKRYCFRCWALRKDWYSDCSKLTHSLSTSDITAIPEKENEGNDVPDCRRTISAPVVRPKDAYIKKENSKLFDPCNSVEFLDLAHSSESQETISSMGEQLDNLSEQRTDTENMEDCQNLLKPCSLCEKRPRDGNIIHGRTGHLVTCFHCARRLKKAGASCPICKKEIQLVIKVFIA

HeLa cells [8] = type: cell-based, human
EEA1-positive vesicles = type: cell-based, human
LAMP1-positive vesicles = type: cell-based, human
TDP1 = TDP1 (Homo sapiens, UniProt Q9NUW8); settings: PubChem data; cited from earlier work
[9] = target: T3, acetylcholine receptor M1 (Homo sapiens, UniProt P11229); settings: PubChem data; cited from earlier work
T3 sequence (P11229 1-460): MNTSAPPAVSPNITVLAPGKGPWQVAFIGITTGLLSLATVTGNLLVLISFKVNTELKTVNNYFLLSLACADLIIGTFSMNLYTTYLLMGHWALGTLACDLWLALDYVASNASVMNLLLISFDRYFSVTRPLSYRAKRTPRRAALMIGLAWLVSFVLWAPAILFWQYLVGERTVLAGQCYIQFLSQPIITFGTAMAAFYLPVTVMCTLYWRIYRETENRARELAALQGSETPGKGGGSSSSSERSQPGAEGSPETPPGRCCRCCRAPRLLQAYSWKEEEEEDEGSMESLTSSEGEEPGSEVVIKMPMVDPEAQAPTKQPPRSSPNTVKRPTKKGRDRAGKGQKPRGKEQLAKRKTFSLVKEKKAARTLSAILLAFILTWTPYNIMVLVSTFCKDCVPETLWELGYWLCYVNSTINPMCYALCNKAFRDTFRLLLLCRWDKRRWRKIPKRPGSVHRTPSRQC

[10] = read-out: Activity in macrophages IC50

Chain of MDM2/A (Q00987 whole entry, species assumed): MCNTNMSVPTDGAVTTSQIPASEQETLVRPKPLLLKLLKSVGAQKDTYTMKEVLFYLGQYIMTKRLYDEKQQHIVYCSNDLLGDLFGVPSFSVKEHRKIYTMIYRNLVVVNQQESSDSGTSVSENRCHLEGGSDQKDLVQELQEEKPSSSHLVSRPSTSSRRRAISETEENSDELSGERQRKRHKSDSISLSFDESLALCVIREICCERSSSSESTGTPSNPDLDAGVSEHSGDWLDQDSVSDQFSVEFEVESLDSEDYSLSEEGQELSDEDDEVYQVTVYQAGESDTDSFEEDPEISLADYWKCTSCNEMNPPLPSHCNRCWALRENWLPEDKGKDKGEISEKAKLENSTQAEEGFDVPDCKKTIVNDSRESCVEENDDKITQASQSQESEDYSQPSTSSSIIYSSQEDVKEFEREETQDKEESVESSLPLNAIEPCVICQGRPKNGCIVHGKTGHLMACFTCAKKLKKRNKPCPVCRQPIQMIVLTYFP
Chain of TDP1 (Q9NUW8 whole entry, species assumed): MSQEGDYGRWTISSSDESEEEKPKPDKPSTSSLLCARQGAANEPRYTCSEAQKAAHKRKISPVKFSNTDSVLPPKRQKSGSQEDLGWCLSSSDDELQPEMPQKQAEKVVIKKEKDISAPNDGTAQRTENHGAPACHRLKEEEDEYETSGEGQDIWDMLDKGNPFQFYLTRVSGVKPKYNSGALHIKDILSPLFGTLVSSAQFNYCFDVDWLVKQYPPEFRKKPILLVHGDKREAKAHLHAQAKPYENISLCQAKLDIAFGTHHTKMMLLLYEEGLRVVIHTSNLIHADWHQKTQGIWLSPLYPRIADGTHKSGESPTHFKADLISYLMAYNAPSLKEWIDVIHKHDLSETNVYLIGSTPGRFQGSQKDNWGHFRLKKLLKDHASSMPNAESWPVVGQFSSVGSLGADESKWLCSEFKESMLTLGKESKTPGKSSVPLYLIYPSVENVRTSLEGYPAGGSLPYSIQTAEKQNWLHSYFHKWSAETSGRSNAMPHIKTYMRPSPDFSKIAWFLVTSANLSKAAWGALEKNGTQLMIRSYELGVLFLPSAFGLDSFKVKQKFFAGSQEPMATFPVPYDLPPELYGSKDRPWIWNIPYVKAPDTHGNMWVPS

Compound | Curve class (MARV) (MARV) | MARV (Curve class) (MARV) | Curve Class (EBOV) (EBOV [1]) | EBOV (curve class) (EBOV [1]) | Surface interaction (EBOV [3]) | Uninfected cell number (EBOV [3]) | enhancement of virus interaction with cells (EBOV [3]) [%] | Dextran Uptake (HeLa cells [4]) | effect on transferrin uptake (HeLa cells [5]) | Transferrin uptake (HeLa cells [5]) | Acidification Block [6] | Cathepsin clevage (Cathepsin) | NPC1 C-loop binding (NPC1 C-loop) | inhibition of MDM2/A (MDM2/A) | inhibition of MDM4/1 (MDM4/1) | IC50 (MARV; read-out: IC-50 (MARV)) [µM] | IC50 (MARV; read-out: MARV HeLa IC50) [µM] | IC50 (EBOV [1]; read-out: EBOV HeLa IC50) [µM] | IC50 (EBOV [1]; read-out: IC-50 (EBOV)) [µM] | IC50 (EBOV [2]; [10]) [µM] | further results
O=[N+]([O-])c1cc(S(=O)(=O)NCCN2CCOCC2)ccc1Sc1nnnn1-c1ccccc1 [MLS000394177, N-(2-morpholin-4-ylethyl)-3-nitro-4-(1-phenyltetrazol-5-yl)sulfanylbenzenesulfonamide] | 1.3 | 1.3 | 1.6 | 1.6 | + | 0 | 44 | − | no effect on transferrin uptake | 0 | + | 0 | 0 | identified as inhibitors | identified as inhibitors |  |  |  |  |  | IC50 (MARV; Orthomarburgvirus, HeLa, read-out: IC-50 (MARV)): 12.9 µM; IC50 (MARV; Orthomarburgvirus, HeLa, read-out: MARV HeLa IC50 (μM)): 12.9 µM; potency for Ebolavirus inhibition, times better than EIPA (EBOV [1]): 25 times; EC50 (EBOV [1]; HeLa, read-out: EC50 for Ebolavirus inhibition): 1.9 µM; IC50 (EBOV [1]; Zaire ebolavirus, HeLa, read-out: EBOV HeLa IC50 (μM)): 1.9 µM; IC50 (EBOV [1]; Zaire ebolavirus, HeLa, read-out: IC-50 (EBOV)): 1.89 µM; IC50 (EBOV [2]; Zaire ebolavirus, Macrophage, read-out: Activity in macrophages IC50 (μM)): 8.6 µM; reduction of number of viral particles inside the cell body (EBOV [3]): 62%; reduction of uptake of fluorescently labeled dextran (HeLa cells [4]): approximately 91%; effect on endosomal acidification [6]: affected endosomal acidification; toxic concentration (not toxic up to / toxic at) (HeLa cells [7]): > 100 µM; secretion of IL-1-Beta (IL-1-Beta): inhibit secretion of IL-1-Beta; inhibition of Janus kinase 2 (JNK2) (Janus kinase 2): active; Synuclein activity (Synuclein): active; Shiga toxins A and B (Shiga toxins A and B): active
N#Cc1c(NCCN)nc(-c2ccccc2)c2c1CCCC2 [MLS000534476] | 1.3 | 1.3 | 1.6 | 1.6 | − | + |  | 0 |  | − | + | 0 | 0 | identified as inhibitors | identified as inhibitors | 6.21 | 6.2 | 24.4 | 24.4 | 3.6 | decrease in total viral particles bound to cell surface (EBOV [3]): 55%; virus particle uptake (EBOV [3]): reduced particle uptake; decrease in transferrin binding to cells (HeLa cells [8]): > 55%; effect on endosomal acidification [6]: affected endosomal acidification; GP cleavage by cellular proteases (Cathepsin): reduced GP cleavage
CC(C)(C)c1nc2ccccc2c2nnc(SCC(=O)Nc3nccs3)n12 [MLS000555232] | 1.3 | 1.3 | 1.6 | 1.6 | + | 0 | 89 | 0 | do not inhibit transferrin uptake | 0 | − | 0 | 0 | identified as inhibitors | identified as inhibitors | 6.26 | 6.3 | 1.7 | 1.74 | 9.4 | increase in virus particle binding to the cell surface (EBOV [3]): ~2 fold; Effect on EEA1 (EEA1-positive vesicles): −; reduction of colocalization of EBOV VLPs with EEA1-positive vesicles (EEA1-positive vesicles): 77%; Effect on LAMP1 (LAMP1-positive vesicles): −; reduction of number of VLPs present in LAMP1-positive vesicles (LAMP1-positive vesicles): 89%
CC(C)N1CCN(C(=O)c2ccc(OC3CCN(CCc4ccccc4)CC3)cc2)CC1 [MLS001101371] | 1.3 | 1.3 | 1.3 | 1.3 | 0 | 0 |  | 0 | do not inhibit transferrin uptake | 0 | + | 0 | 0 |  |  | 13 | 13 | 12.9 | 12.9 | 24.6 | Effect on EEA1 (EEA1-positive vesicles): 0; VLP colocalization with EEA1 (EEA1-positive vesicles): colocalized with EEA1 positive vesicles normally; Effect on LAMP1 (LAMP1-positive vesicles): −; reduction of number of VLPs present in LAMP1-positive vesicles (LAMP1-positive vesicles): 41%; antagonist of DNA repair gene TDP1 (TDP1): identified; antagonist of acetylcholine receptor M1 [9]: identified
